Reference: ChEMBL document CHEMBL6092154, “Design, synthesis, and evaluation of a novel TRAIL-activated HDAC6 inhibitor for the treatment of pulmonary fibrosis” (Bioorg Med Chem, 2024)
Calls of active or inactive are those of the source. The calls are words filed in the database; no cut-off is given here.

Columns and labels:
Histone deacetylase 2 = Histone deacetylase 2 (Homo sapiens, UniProt Q92769); assay: Inhibition of HDAC2 (unknown origin) at 1 uM incubated for 30 mins by fluorometric analysis
[1] = molecular target: T1, Protein deacetylase HDAC6 (Homo sapiens) (UniProt Q9UBN7); assay: Inhibition of HDAC6 (unknown origin) at 1 uM incubated for 30 mins by fluorometric analysis
T1 sequence (whole entry): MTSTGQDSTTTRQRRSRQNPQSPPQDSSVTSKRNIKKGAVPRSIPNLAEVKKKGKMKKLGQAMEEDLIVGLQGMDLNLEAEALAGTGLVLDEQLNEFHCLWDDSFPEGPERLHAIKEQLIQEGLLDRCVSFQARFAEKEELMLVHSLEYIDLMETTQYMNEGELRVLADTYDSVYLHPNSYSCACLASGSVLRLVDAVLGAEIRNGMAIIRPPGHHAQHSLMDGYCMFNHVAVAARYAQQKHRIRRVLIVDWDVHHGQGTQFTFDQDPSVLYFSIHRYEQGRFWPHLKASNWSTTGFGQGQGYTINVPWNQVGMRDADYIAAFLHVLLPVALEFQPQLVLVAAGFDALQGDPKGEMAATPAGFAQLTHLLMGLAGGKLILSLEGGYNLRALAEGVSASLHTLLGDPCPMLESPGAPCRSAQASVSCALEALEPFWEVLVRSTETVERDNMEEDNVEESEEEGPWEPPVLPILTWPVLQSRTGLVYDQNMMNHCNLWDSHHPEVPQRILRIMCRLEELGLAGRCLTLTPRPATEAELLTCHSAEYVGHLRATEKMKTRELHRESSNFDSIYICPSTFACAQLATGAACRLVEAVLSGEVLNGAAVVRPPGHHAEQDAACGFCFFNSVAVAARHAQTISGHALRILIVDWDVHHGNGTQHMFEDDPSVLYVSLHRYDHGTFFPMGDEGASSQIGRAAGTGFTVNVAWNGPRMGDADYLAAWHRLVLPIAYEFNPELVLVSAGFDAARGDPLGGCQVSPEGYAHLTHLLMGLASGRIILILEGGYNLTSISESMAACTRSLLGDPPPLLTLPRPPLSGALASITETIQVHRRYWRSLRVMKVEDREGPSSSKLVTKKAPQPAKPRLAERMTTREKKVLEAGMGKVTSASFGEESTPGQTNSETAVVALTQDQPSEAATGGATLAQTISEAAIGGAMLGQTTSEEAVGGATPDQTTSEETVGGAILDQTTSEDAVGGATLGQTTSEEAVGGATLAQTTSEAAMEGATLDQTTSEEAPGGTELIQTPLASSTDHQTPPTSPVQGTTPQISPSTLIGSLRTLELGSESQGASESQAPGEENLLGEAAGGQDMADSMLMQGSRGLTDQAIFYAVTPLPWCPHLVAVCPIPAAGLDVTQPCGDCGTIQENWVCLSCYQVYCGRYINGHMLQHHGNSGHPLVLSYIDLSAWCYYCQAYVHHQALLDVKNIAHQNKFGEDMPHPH

[2] = molecular target: T2, Protein deacetylase HDAC6 (Homo sapiens, UniProt Q9UBN7); assay: Inhibition of HDAC6 (unknown origin) incubated for 30 mins by fluorometric analysis
T2 sequence (Q9UBN7 whole entry): T1 sequence (whole entry)

Histone deacetylase 8 = molecular target: T3, Histone deacetylase 8 (Homo sapiens, UniProt Q9BY41); assay: Inhibition of HDAC8 (unknown origin) incubated for 30 mins by fluorometric analysis
T3 sequence (Q9BY41 whole entry): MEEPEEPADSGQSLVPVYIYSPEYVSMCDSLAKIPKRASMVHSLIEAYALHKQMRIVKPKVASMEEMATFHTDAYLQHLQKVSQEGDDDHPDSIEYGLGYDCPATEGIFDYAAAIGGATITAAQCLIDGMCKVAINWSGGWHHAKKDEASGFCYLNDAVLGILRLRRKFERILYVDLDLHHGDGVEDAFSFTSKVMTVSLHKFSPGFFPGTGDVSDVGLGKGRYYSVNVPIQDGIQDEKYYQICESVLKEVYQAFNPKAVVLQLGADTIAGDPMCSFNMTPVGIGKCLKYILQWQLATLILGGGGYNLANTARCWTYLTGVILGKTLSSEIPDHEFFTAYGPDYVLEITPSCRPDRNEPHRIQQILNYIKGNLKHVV

RPMI-8226 = assay: Antiproliferative activity against human RPMI-8226 cells assessed as inhibition of cell growth incubated for 24 to 48 hrs by CCK8 assay; type: functional, cell-based
NIH3T3 = assay: Antiproliferative activity against mouse NIH/3T3 cells assessed as inhibition of cell growth incubated for 24 to 48 hrs by CCK8 assay; type: functional, cell-based
[3] = molecular target: T1, Protein deacetylase HDAC6 (Homo sapiens); assay: Inhibition of HDAC6 in human RPMI-8226 cells assessed as increase in acetylated histone H3 level at 0.25 to 1 uM incubated for 24 hrs by western blot analysis; type: cell-based; settings: dose 0.25-1 µM
[4] = molecular target: T1, Protein deacetylase HDAC6 (Homo sapiens); assay: Inhibition of HDAC6 in human RPMI-8226 cells assessed as increase in acetylated histone H4 level at 1 uM incubated for 24 hrs by western blot analysis; type: cell-based
Mus musculus = assay: Anti-pulmonary fibrosis activity in bleomycin-induced idiopathic pulmonary fibrosis C57BL/6J mouse model assessed as decrease in lung damage by measuring decrease in inflammatory cell infiltration in lung at 25 to 50 mg/kg, ig administered daily via gavage and measured on day 14 by Sirius red staining based analysis; type: functional, organism-based; settings: dose 25-50 mg/kg, time 14.0 day
[5] = Toxicity against silicosis C57BL/6J mouse model assessed as ALT index in serum at 50 mg/kg, ig administered daily via gavage and measured on day 28; type: organism-based; settings: in vivo, po, 672 h, time 28 day
[6] = Toxicity against silicosis C57BL/6J mouse model assessed as uric acid level in serum at 50 mg/kg, ig administered daily via gavage and measured on day 28; type: organism-based; settings: in vivo, po, 672 h, time 28 day
[7] = Toxicity against silicosis C57BL/6J mouse model assessed as effect on heart morphological changes at 50 mg/kg, ig administered daily via gavage and measured on day 28 by Hematoxylin-Eosin staining based analysis; type: organism-based; settings: in vivo, po, 672 h, time 28 day
[8] = Toxicity against silicosis C57BL/6J mouse model assessed as effect on kidney morphological changes at 50 mg/kg, ig administered daily via gavage and measured on day 28 by Hematoxylin-Eosin staining based analysis; type: organism-based; settings: in vivo, po, 672 h, time 28 day

Sequence of Histone deacetylase 2 (Q92769 whole entry): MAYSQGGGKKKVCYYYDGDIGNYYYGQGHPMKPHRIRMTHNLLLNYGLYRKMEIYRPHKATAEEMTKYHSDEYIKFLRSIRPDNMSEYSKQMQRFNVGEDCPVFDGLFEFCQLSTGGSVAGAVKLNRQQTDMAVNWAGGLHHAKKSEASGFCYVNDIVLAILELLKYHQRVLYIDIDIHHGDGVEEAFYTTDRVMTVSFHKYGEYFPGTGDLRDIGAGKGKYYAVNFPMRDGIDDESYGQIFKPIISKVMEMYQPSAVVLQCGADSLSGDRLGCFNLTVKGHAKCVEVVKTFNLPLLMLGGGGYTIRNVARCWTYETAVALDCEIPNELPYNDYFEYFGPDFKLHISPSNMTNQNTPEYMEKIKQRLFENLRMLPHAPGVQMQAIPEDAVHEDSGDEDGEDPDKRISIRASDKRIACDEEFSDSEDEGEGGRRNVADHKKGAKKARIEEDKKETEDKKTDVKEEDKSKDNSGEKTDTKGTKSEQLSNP

Molecule `O=C(NO)c1ccc(CN2C(=O)C3=C(CCN(Cc4cccc(Cl)c4)C3)N3CCN=C23)cc1` has an inhibition (Histone deacetylase 2) of 61.8%, an inhibition [1] of 94.8% and an IC50 [2] of 42.9 nM. For the same molecule, the IC50 (Histone deacetylase 8) was 333 nM, the IC50 (RPMI-8226) was 440 nM and the IC50 (NIH3T3) was 890 nM. The inhibition [3] was “Active; Less Affected”, the inhibition [4] was “Active; Intensity Of Increase Slightly Lower Than Positive Drug, Acy-1215” and the Activity (Mus musculus) was “Active”. The Activity [5] was “Non-toxic”, the Activity [6] was “Non-toxic” and the Activity [7] was “Non-toxic”. For the same molecule, the Activity [8] was “Non-toxic”.
